{
  "source": "ChEMBL document CHEMBL5370555",
  "about": "“Design, synthesis, and evaluation of PD-1/PD-L1 small-molecule inhibitors bearing a rigid indane scaffold” (Eur J Med Chem, 2023)",
  "key": {"[1]": {"target": "Programmed cell death protein 1/Programmed cell death 1 ligand 1 (Homo sapiens, UniProt Q15116+Q9NZQ7)", "sequence (Q15116 whole entry)": "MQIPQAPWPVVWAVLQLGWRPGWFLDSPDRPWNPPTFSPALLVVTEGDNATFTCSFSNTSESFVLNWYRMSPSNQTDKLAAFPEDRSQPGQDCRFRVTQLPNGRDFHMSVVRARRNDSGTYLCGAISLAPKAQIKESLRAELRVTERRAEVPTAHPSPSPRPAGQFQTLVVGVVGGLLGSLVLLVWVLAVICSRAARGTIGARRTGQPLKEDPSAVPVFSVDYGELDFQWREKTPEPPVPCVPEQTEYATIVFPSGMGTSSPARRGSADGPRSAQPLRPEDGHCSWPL", "sequence (Q9NZQ7 whole entry)": "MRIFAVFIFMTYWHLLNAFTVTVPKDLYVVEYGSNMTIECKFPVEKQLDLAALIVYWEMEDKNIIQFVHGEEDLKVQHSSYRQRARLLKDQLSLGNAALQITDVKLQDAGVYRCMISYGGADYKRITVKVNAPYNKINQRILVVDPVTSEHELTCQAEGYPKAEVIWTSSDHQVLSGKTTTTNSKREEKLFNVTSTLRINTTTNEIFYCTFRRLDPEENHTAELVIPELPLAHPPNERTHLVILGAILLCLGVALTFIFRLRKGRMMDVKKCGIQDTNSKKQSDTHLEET", "assay": "Inhibition of PD-1/PD-L1 (unknown origin) protein-protein interaction incubated for 15 mins by TR-FRET assay", "format": "protein-complex assay"}, "MDA-MB-231 [2]": {"tested_on": "MDA-MB-231", "assay": "(§1) Antitumor immunity against human MDA-MB-231 cells cocultured with CD3/CD28/CD2 T cell activator stimulated human PBMC cells assessed as killing activity cell mortality rate at 0.5 uM pre-treated with compound for 2 hrs followed by addition of CD3/CD28/CD2 T cell activator stimulated human PBMC cells and measured after 12 hrs relative to control", "format": "functional", "conditions": "time 14 hrs"}, "PBMC": {"tested_on": "PBMC", "assay": "Cytotoxicity against human PBMC cells at < 8 uM incubated for 24 hrs by CCK-8 method", "format": "toxicity, cell-based"}, "Jurkat [3]": {"tested_on": "Jurkat", "assay": "Cytotoxicity against human Jurkat cells at < 8 uM incubated for 24 hrs by CCK-8 method", "format": "functional, cell-based"}, "Jurkat [4]": {"tested_on": "Jurkat", "assay": "Restoration of PD-L1 mediated IFN-gamma release in anti-CD3/CD28 stimulated human Jurkat cells at 0.5 uM incubated for 24 hrs by ELISA method", "format": "functional, cell-based"}, "Jurkat [5]": {"tested_on": "Jurkat", "assay": "Restoration of PD-L1 mediated IFN-gamma release in anti-CD3/CD28 stimulated human Jurkat cells incubated for 24 hrs by ELISA method", "format": "functional, cell-based", "conditions": "dose 0.25-2 µM"}, "RKO": {"tested_on": "RKO", "assay": "Cytotoxicity against human RKO cells at 8 uM incubated for 24 hrs by CCK-8 method", "format": "functional, cell-based"}, "MDA-MB-231 [6]": {"tested_on": "MDA-MB-231", "assay": "Cytotoxicity against human MDA-MB-231 cells at 1.0 uM incubated for 24 hrs by CCK-8 method", "format": "functional, cell-based"}, "MDA-MB-231 [7]": {"tested_on": "MDA-MB-231", "assay": "Cytotoxicity against human MDA-MB-231 cells at 8 uM incubated for 24 hrs by CCK-8 method", "format": "functional, cell-based"}, "MDA-MB-231 [8]": {"tested_on": "MDA-MB-231", "assay": "as §1, with “activity” for “activity cell mortality rate”, “0.25 to 1” for “0.5”, “hrs” for “hrs relative to control”", "format": "functional, cell-based", "conditions": "dose 0.25-1 µM, time 14.0 hrs"}},
  "note": "pIC50: −log10 of the molar value. Activity calls are given as the source filed them. No cut-off for these calls is given here.",
  "data": [
    {"smiles": "COc1nc(O[C@H]2CCCc3c(-c4ccccc4)cccc32)ccc1CNCCNC(C)=O", "values": [
      {"measurement": "pIC50", "setting": "[1]", "result": 7.32}
    ]},
    {"smiles": "COc1nc(O[C@H]2CCc3c(-c4cccc(F)c4)cccc32)c(Cl)cc1CNCCO", "values": [
      {"measurement": "pIC50", "setting": "[1]", "result": 7.61}
    ]},
    {"smiles": "COc1nc(O[C@H]2CCc3c(-c4ccc5c(c4)OCCO5)cccc32)c(Cl)cc1CN1CC[C@H](C(=O)O)C1", "values": [
      {"measurement": "pIC50", "setting": "[1]", "result": 7.79}
    ]},
    {"smiles": "COc1nc(O[C@H]2CCc3c(-c4ccc(F)c(F)c4)cccc32)c(Cl)cc1CNCCO", "values": [
      {"measurement": "pIC50", "setting": "[1]", "result": 7.25}
    ]},
    {"smiles": "COc1nc(O[C@H]2CCc3c(-c4ccc5c(c4)OCO5)cccc32)c(Cl)cc1CNCCO", "values": [
      {"measurement": "pIC50", "setting": "[1]", "result": 7.60}
    ]},
    {"smiles": "COc1nc(O[C@@H]2CCc3c(-c4ccccc4)cccc32)ccc1CNCCO", "values": [
      {"measurement": "pIC50", "setting": "[1]", "result": 7.24}
    ]},
    {"smiles": "COc1nc(O[C@H]2CCc3c(-c4ccc5c(c4)OCCO5)cccc32)c(Cl)cc1CNC[C@@H]1CCC(=O)N1", "values": [
      {"measurement": "pIC50", "setting": "[1]", "result": 7.80}
    ]},
    {"smiles": "COc1nc(O[C@H]2CCc3c(-c4ccc5c(c4)OCCO5)cccc32)c(Cl)cc1CNCCO", "values": [
      {"measurement": "pIC50", "setting": "[1]", "result": 7.99}
    ]},
    {"smiles": "COc1nc(O[C@H]2CCc3c(-c4ccccc4)cccc32)c(Cl)cc1CNCCO", "values": [
      {"measurement": "pIC50", "setting": "[1]", "result": 8.12}
    ]},
    {"smiles": "COc1nc(O[C@H]2CCc3c(-c4ccc5c(c4)OCCO5)cccc32)c(Cl)cc1CNC[C@@H](O)CC(=O)O", "values": [
      {"measurement": "pIC50", "setting": "[1]", "result": 7.85}
    ]},
    {"smiles": "COCCNCc1cc(Cl)c(O[C@H]2CCc3c(-c4ccc5c(c4)OCCO5)cccc32)nc1OC", "values": [
      {"measurement": "pIC50", "setting": "[1]", "result": 7.37}
    ]},
    {"smiles": "COc1ccc(-c2cccc3c2CC[C@@H]3Oc2nc(OC)c(CNCCO)cc2Cl)cc1OC", "values": [
      {"measurement": "pIC50", "setting": "[1]", "result": "< 7.00"}
    ]},
    {"smiles": "COc1nc(O[C@@H]2CCc3c(-c4ccc5c(c4)OCCO5)cccc32)c(Cl)cc1CN1CC(O)C1", "values": [
      {"measurement": "pIC50", "setting": "[1]", "result": 7.71}
    ]},
    {"smiles": "COc1nc(O[C@H]2CCc3c(-c4ccc5c(c4)OCCO5)cccc32)c(Cl)cc1CNC[C@@H](O)CO", "values": [
      {"measurement": "pIC50", "setting": "[1]", "result": 7.88}
    ]},
    {"smiles": "COc1nc(O[C@H]2CCc3c(-c4ccc5c(c4)OCCO5)cccc32)c(Cl)cc1CNCCNC(C)=O", "values": [
      {"measurement": "pIC50", "setting": "[1]", "result": 7.79}
    ]},
    {"smiles": "COc1nc(O[C@H]2CCc3c(-c4ccc5c(c4)OCCO5)cccc32)c(Cl)cc1CNCCN(C)C", "values": [
      {"measurement": "pIC50", "setting": "[1]", "result": 7.34}
    ]},
    {"smiles": "COc1nc(O[C@H]2CCc3c(-c4ccccc4)cccc32)ccc1CNCCO", "values": [
      {"measurement": "pIC50", "setting": "[1]", "result": 7.61}
    ]},
    {"smiles": "COc1nc(O[C@@H]2CCc3c(-c4ccccc4)cccc32)ccc1CNCCNC(C)=O", "values": [
      {"measurement": "pIC50", "setting": "[1]", "result": 7.07}
    ]},
    {"smiles": "COc1nc(O[C@H]2CCc3c(-c4ccc5ccccc5c4)cccc32)c(Cl)cc1CNCCO", "values": [
      {"measurement": "pIC50", "setting": "[1]", "result": "< 7.00"}
    ]},
    {"smiles": "COc1nc(O[C@H]2CCc3c(-c4ccccc4F)cccc32)c(Cl)cc1CNCCO", "values": [
      {"measurement": "mortality at 0.5 µM", "setting": "MDA-MB-231 [2]", "result": 40.9, "unit": "%"},
      {"measurement": "Activity", "setting": "PBMC", "result": "Non-Toxic"},
      {"measurement": "Activity", "setting": "Jurkat [3]", "result": "Active"},
      {"measurement": "Activity", "setting": "Jurkat [4]", "result": "Active"},
      {"measurement": "pIC50", "setting": "[1]", "result": 8.66},
      {"measurement": "Activity", "setting": "Jurkat [5]", "result": "Dose-Dependent Effect"},
      {"measurement": "Activity", "setting": "RKO", "result": "Active"},
      {"measurement": "Activity", "setting": "MDA-MB-231 [6]", "result": "inactive"},
      {"measurement": "Activity", "setting": "MDA-MB-231 [7]", "result": "Active"},
      {"measurement": "Activity", "setting": "MDA-MB-231 [8]", "result": "Active"}
    ]},
    {"smiles": "COc1nc(O[C@H]2CCc3c(-c4ccc5c(c4)OCCO5)cccc32)c(Cl)cc1CNCCC(N)=O", "values": [
      {"measurement": "pIC50", "setting": "[1]", "result": 7.69}
    ]},
    {"smiles": "COc1nc(O[C@H]2CCc3c(-c4ccc5c(c4)OCCO5)cccc32)c(Cl)cc1CN1CC[C@@H](O)C1", "values": [
      {"measurement": "pIC50", "setting": "[1]", "result": 7.16}
    ]},
    {"smiles": "COc1nc(O[C@H]2CCc3c(-c4ccc(F)cc4)cccc32)c(Cl)cc1CNCCO", "values": [
      {"measurement": "pIC50", "setting": "[1]", "result": 7.42}
    ]},
    {"smiles": "COc1nc(OCc2cccc(-c3ccccc3)c2C)ccc1CNCCNC(C)=O", "values": [
      {"measurement": "mortality at 0.5 µM", "setting": "MDA-MB-231 [2]", "result": 45.1, "unit": "%"}
    ]},
    {"smiles": "COc1nc(O[C@H]2CCCc3c(-c4ccccc4)cccc32)ccc1CNCCO", "values": [
      {"measurement": "pIC50", "setting": "[1]", "result": "< 7.00"}
    ]},
    {"smiles": "COCCOc1cccc(-c2cccc3c2CC[C@@H]3Oc2nc(OC)c(CNCCO)cc2Cl)c1", "values": [
      {"measurement": "pIC50", "setting": "[1]", "result": 7.02}
    ]},
    {"smiles": "COc1nc(O[C@H]2CCc3c(-c4ccccc4)cccc32)ccc1CNCCNC(C)=O", "values": [
      {"measurement": "pIC50", "setting": "[1]", "result": 7.68}
    ]},
    {"smiles": "COc1nc(O[C@H]2CCc3c(-c4ccc5c(c4)OCCO5)cccc32)c(Br)cc1CNCCO", "values": [
      {"measurement": "pIC50", "setting": "[1]", "result": 7.29}
    ]},
    {"smiles": "COc1nc(O[C@H]2CCc3c(-c4ccc5c(c4)OCCO5)cccc32)c(Cl)cc1CN1CC[C@H](O)C1", "values": [
      {"measurement": "pIC50", "setting": "[1]", "result": 7.74}
    ]},
    {"smiles": "COc1nc(O[C@H]2CCc3c(-c4ccc5[nH]ccc5c4)cccc32)c(Cl)cc1CNCCO", "values": [
      {"measurement": "pIC50", "setting": "[1]", "result": "< 7.00"}
    ]},
    {"smiles": "COc1cccc(-c2cccc3c2CC[C@@H]3Oc2nc(OC)c(CNCCO)cc2Cl)c1", "values": [
      {"measurement": "pIC50", "setting": "[1]", "result": "< 7.00"}
    ]},
    {"smiles": "COc1nc(O[C@H]2CCc3c(-c4ccc5c(c4)OCCO5)cccc32)c(Cl)cc1CNCC(F)(F)F", "values": [
      {"measurement": "pIC50", "setting": "[1]", "result": 7.17}
    ]}
  ]
}
